Assay results: article PMC11984586, “A novel spider toxin as a selective antagonist of the Kv1 subfamily of voltage-gated potassium channels through gating modulation” (The Journal of Biological Chemistry, 2025)
Bridge positions count the residues as written; N and C are the ends. Peptide text beside a SMILES is read from it.

What was measured:
[1] = test system: Kv1.3/Kv1.4 S3-S4 chimeric channel; test: Whole-cell patch clamp, chimeric channel; format: cell-based, human/rat; conditions: +30 mV, mean ± SD, n = 5-6
Source text: To investigate the structural determinants underlying the differential regulatory effects of MrVIII on Kv1 channels, we employed a chimeric channel strategy. Using Kv1.3 as the template, the S1-S2, S3-S4, and S5-S6 transmembrane helices and their respective linkers from Kv1.1 were inserted to generate chimeras, generating the Kv1.3/1.1 S1-S2, Kv1.3/1.1 S3-S4, and Kv1.3/1.1 S5-S6 chimeric channels. […] These findings indicate that the S3-S4 is the key determinant for the differential inhibition of Kv1.1 and Kv1.3 by MrVIII. To further validate this conclusion, we constructed a reverse chimeric channel using Kv1.1 as the template, inserting the corresponding regions from Kv1.3 into Kv1.1. […] This finding more directly illustrates the exchange of the channel's voltage-dependence phenotype in toxin inhibition by swapping this S3-S4 between Kv1.1 and Kv1.3. […] In addition to confirming the differential role of S3-S4 between Kv1.1 and Kv1.3, we also substituted the S3-S4 of Kv1.4 and Kv1.7 into Kv1.3 to analyze MrVIII's inhibition profile. […]
(§1) CHO-K1 cells were selected for expressing Kv channels due to their lack of endogenous Kv channels, while HEK293 or ND7/23 cells were used for Nav and Cav channel expression. […] After 4 to 6 h transfection, cells were seeded onto poly-lysine–coated coverslips, and 24 to 36 h later, transfected cells were ready for patch-clamp analysis. […]

[2] = target: T1, Kv1.3/L347I (Homo sapiens, UniProt P22001, L347I); test: Whole-cell patch clamp, Kv1.3 point mutant; format: cell-based; conditions: +30 mV stimulus, mean ± SD, n = 5, read-out: IC50, Kv1.3/L347I current
T1 construct: expressed in transfected cells; host or cells: CHO-K1
T1 sequence (P22001 whole entry L347I): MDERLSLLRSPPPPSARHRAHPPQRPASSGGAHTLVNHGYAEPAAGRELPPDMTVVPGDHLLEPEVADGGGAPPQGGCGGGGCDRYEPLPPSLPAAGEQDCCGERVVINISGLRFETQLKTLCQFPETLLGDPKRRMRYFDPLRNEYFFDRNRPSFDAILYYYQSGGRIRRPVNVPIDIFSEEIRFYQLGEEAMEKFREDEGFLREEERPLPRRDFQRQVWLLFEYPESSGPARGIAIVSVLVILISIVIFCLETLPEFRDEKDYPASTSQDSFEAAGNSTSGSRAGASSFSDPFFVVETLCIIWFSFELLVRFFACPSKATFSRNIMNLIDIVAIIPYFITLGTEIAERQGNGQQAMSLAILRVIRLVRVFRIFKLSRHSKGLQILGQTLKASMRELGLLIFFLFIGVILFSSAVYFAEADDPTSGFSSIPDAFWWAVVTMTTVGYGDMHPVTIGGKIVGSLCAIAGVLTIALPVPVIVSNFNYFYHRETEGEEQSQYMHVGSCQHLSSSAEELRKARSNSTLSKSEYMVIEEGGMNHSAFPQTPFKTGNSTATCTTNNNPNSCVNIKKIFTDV
Source text: (§2) In contrast, differences at positions 347, 355, and 358 between Kv1.3 and Kv1.1 prompted further analysis. To explore whether these discrepancies influence peptide-mediated inhibition, we substituted these residues in Kv1.3 with their homologous counterparts in Kv1.1 and assessed the MrVIII's inhibitory efficacy on these single-point mutants. […] To further investigate this, we introduced double adjacent mutations around Q355 and M358 in Kv1.3 to explore potential synergistic effects on MrVIII's inhibitory activity.
(§3) The cDNA of hKv1.1, hKv1.2, hKv1.3, rKv1.4, hKv1.5, mKv1.6, and hKv1.7 were subcloned into mammalian expression vectors pcDNA3.1 or pCMV-blank vectors, as well as other plasmids described previously ([35]). Channel mutants were generated by site-directed mutations. Briefly, the parental channel plasmid was amplified using a pair of oppositely directed primers harboring the designed mutation site, with KOD Fx (TOYOBO Co, Ltd). The resulting PCR mix was treated with FastDigest DpnI (Thermo Fisher Scientific) to remove the methylated template. Ten microliters of the digested product was then used to transform 100 μl E. coli DH5α competent cells. […]
as §1
(§4) For Kv current recordings, the bath solution contained (in mM) the following: 140 NaCl, 5 KCl, 1 MgCl2, 2 CaCl2, 10 glucose, and 10 Hepes (pH 7.3, adjusted with NaOH), and the pipette solution contained (in mM) the following: 140 KCl, 2.5 MgCl2, 11 EGTA, and 10 Hepes (pH 7.3, adjusted with KOH). […] Whole cell conductance (G) at each depolarizing voltage (V) was determined using the equation: G = I/(V−Vrev), where I is the current amplitude, and Vrev is the reversal potential. […] The steady-state fast inactivation of Kv1.3 was measured using a two-pulses protocol. […]

[3] = target: T2, Kv1.3/M358T (Homo sapiens, UniProt P22001, M358T); test: Whole-cell patch clamp, Kv1.3 point mutant; format: cell-based; conditions: +30 mV stimulus, mean ± SD, n = 5, read-out: IC50, Kv1.3/M358T current
T2 construct: expressed in transfected cells; host or cells: CHO-K1
T2 sequence (P22001 whole entry M358T): as the sequence (P22001 whole entry L347I) above, with I347L, M358T counted along it
Source text: as §2, §3, §1, §4

[4] = target: T3, Kv1.3/Q355E (Homo sapiens, UniProt P22001, Q355E); test: Whole-cell patch clamp, Kv1.3 point mutant; format: cell-based; conditions: +30 mV stimulus, mean ± SD, n = 5, read-out: IC50, Kv1.3/Q355E current
T3 construct: expressed in transfected cells; host or cells: CHO-K1
T3 sequence (P22001 whole entry Q355E): as the sequence (P22001 whole entry L347I) above, with I347L, Q355E counted along it
Source text: as §2, §3, §1, §4

`CC[C@H](C)[C@@H]1NC(=O)[C@H](Cc2ccc(O)cc2)NC(=O)[C@H](CCC(N)=O)NC(=O)[C@@H]2CCCN2C(=O)[C@@H]2CSSC[C@H](NC(=O)[C@H](C)NC(=O)[C@H](CO)NC(=O)[C@H](CCC(=O)O)NC(=O)[C@H](CCC(=O)O)NC(=O)[C@@H](N)[C@@H](C)O)C(=O)NCC(=O)NCC(=O)N[C@@H](Cc3ccccc3)C(=O)N[C@@H](CC(N)=O)C(=O)N[C@@H](C)C(=O)N[C@@H](CCCNC(=N)N)C(=O)N[C@H]3CSSC[C@H](NC1=O)C(=O)N[C@@H](CCCCN)C(=O)NCC(=O)N[C@@H](Cc1c[nH]c4ccccc14)C(=O)N[C@@H](CCCNC(=N)N)C(=O)N[C@@H]([C@@H](C)O)C(=O)N[C@@H](CCCCN)C(=O)N[C@@H](CCCNC(=N)N)C(=O)N[C@H](C(=O)N[C@@H](CC(C)C)C(=O)N[C@@H](CC(N)=O)C(=O)N1CCC[C@H]1C(=O)O)CSSC[C@H](NC(=O)[C@H](CCCCN)NC(=O)[C@H](Cc1c[nH]cn1)NC(=O)[C@H](CC(C)C)NC(=O)[C@@H]1CCCN1C3=O)C(=O)N2` [MrVIII] (H-TEESACGGFNARCPLHKCCPQYICKGWRTKRCLNP-OH; disulfide 6-19, 13-24, 18-32; N-terminus and C-terminus assumed) was tested, and the IC50 ([1]; current at 50 ms) was 0.117 ± 0.0482 µM, the “inhi%(495 ms), Kv1.3/Kv1.4 S3-S4 current” value ([1]; current at 495 ms) was 37.9 ± 5.4% and the IC50 [2] was 0.0142 ± 0.0008 µM. It also gave an IC50 [3] of 0.143 ± 0.033 µM and an IC50 [4] of 0.0142 ± 0.0072 µM.
